Source: publication PMC12040169 (PLOS Biology, 2025)

Test: in vitro
Conditions: human, hela cells, % viability

Structure (SMILES) | viability at 28.5 h, 10 µM
CC1(C)C[C@H](NC(=O)c2cccs2)[C@@]2(CCC(=O)N3CCCC3)CC[C@](C)(O)C[C@@H]12 [CBK289042] | 122%
COC(=O)c1ccsc1NS(=O)(=O)c1ccc(F)cc1 [CBK039060] | 89.7%
O=C(c1ccccc1F)N1CCC(O)(c2cccnc2F)CC1 [CBK284356] | 97.1%
Cc1ccc(C2(CNC(=O)CCc3ccncc3)CCOCC2)cc1 [CBK281574] | 93.7%
COc1nccnc1OC1CCN(Cc2ccc(C(F)(F)F)cc2)CC1 [CBK084243] | 79.3%
CN1CCN(C(=O)CC[C@@H]2CNC(=O)[C@@H]3C[C@H](NC(=O)c4cccc(F)c4)CN23)CC1 [CBK289015] | 92.2%
CCn1c(=O)n(CC(=O)N2CCc3ccccc32)c2cccnc21 [CBK283826] | 89.4%
Cc1ccc(OC(C)C(=O)NCCCN2CCOCC2)cc1C (centres unmarked) [CBK268109] | 94.3%
O=C(Nc1cccc(F)c1)c1cc2ccccc2cc1O [CBK016863] | 102%
Cc1cc(Cc2cccc(Cl)c2)cc(C2CCCN(C(=O)CN3CCCC3=O)C2)n1 (centres unmarked) [CBK286103] | 94%
N#Cc1cnccc1N1CC2COCCC2(C(=O)N2CCCC2)C1 (centres unmarked) [CBK304731] | 83%
Cc1nc(NC(CC(C)C)C(=O)O)c2nc(C)oc2n1 (centres unmarked) [CBK022157] | 115%
CC(C)Nc1nc2ccccc2nc1SCCC(=O)O [CBK107858] | 106%
Cc1ccc2c(c1)c(C)c(C(=O)NCCn1ccc(C)n1)n2C [CBK282609] | 106%
Cc1ccc(-c2cc3ccccn3c2C(=O)CSc2nncn2C)cc1 [CBK269580] | 83.5%
CCc1cc(-c2n[nH]cc2-c2nc(C)cs2)c(O)cc1OC [CBK287934] | 103%
COc1ccc(C2=NN(c3ccccc3)C(c3ccc(OC)c(OC)c3C(=O)O)C2)cc1 (centres unmarked) [CBK262679] | 89.3%
Nc1ncc(-c2ccc(C(=O)N3CCOCC3)cc2)nc1-c1cccnc1 [CBK126356] | 106%
CCCCN(C)c1c(C)nc2ccc(C(=O)N(C)CCCN(C)C)cn12 [CBK146006] | 103%
CC(=O)N1CCc2c([nH]c3c(C)cccc23)C12CCN(CCOc1ccccc1)C2 (centres unmarked) [CBK039646] | 85.4%
O=C1N[C@]2(CCc3ccccc31)CN(CC1CC=CCC1)C[C@H]2CO (some centres unmarked) [CBK284794] | 96%
CC(C)[C@H](CO)Nc1nccnc1-c1ccncc1 [CBK089030] | 91.9%

Structure (SMILES) | viability at 28.5 h, 10 µM
COC(=O)c1ccc(S(N)(=O)=O)o1 [CBK113186] | 105%
COc1ccccc1N(CC(=O)NC(C(C)C)C(C)C)S(=O)(=O)c1ccccc1 [CBK101384] | 91.4%
COC(=O)c1cccc2c1[nH]c1ccccc12 [CBK001709] | 99.9%
Nc1ncc(CCCN2CCOCC2)c(N)n1 [CBK025981] | 125%
COC(=O)Nc1ccc(S(=O)(=O)N2CCCC(C(=O)O)C2)cc1 (centres unmarked) [CBK265364] | 98.5%
CCC(O)CNc1ccc(C(=O)N2CCC(N3CCOCC3)CC2)cn1 (centres unmarked) [CBK306865] | 95.1%
Cc1cc(C(F)(F)F)c2c(NCc3ccoc3)n[nH]c2n1 [CBK284698] | 82.9%
C#CCN(C1CCc2ccccc21)S(=O)(=O)c1cc(C(=O)NC)n(C)c1 (centres unmarked) [CBK306235] | 91.8%
Oc1cc2cccnc2nc1-c1ccccc1 [CBK073697] | 115%
CC(C)(C)C(=O)NC(c1nccs1)C1CCN(C(=O)C2CC2)CC1 (centres unmarked) [CBK284678] | 88.8%
COc1ccc(OCC(=O)Nc2ccccc2N2CCN(S(C)(=O)=O)CC2)cc1 [CBK269177] | 89.9%
NC(=O)c1ccc(-c2nccnc2NCc2ccc3c(c2)OCO3)cc1 [CBK036696] | 91.3%
Cc1ccc2nc(-c3ccccc3)cc(C(=O)NCCCn3ccnc3)c2c1 [CBK268526] | 96.1%
Clc1ccc(COc2ccc(/C=N/Nc3nc(N4CCOCC4)nc(N4CCOCC4)n3)cc2)c(Cl)c1 [CBK262061] | 103%
Cc1cc(C)n(C(C)CC(=O)NCC(C)N2CCC(C)CC2)n1 (centres unmarked) [CBK282104] | 108%
Nc1ncc(-c2ccc3c(c2)OCO3)nc1NCc1ccncc1 [CBK063483] | 106%
CC(C)(Oc1cccc2ccccc12)C(=O)O [CBK012409] | 94.5%
CCc1c(-c2cccc(C(=O)N3CCS(=O)(=O)CC3)c2)cnn1C [CBK307487] | 75.3%
CC(=O)c1nnnn1C(C)(C)Cc1ccccc1 [CBK022088] | 91.3%
CCN(CCO)c1ccc(Nc2nc(-c3cccc4ccccc34)cn3ccnc23)cc1 [CBK066243] | 87.9%
Cc1ccccc1-n1nnnc1C(c1ccccc1)N(C)Cc1cccc([N+](=O)[O-])c1 (centres unmarked) [CBK262878] | 91%
CC(C)N(CCC(c1ccccc1)c1cc(Br)ccc1OCc1ccccc1)C(C)C (centres unmarked) [CBK017656] | 79.4%
